Results reported in publication PMC9103815, “Phytochemical Analysis, α-Glucosidase and α-Amylase Inhibitory Activities and Acute Toxicity Studies of Extracts from Pomegranate (Punica granatum) Bark, a Valuable Agro-Industrial By-Product” (Foods, 2022).

Target: T1, pancreatic α-amylase (Homo sapiens, UniProt P04746)
T1 construct: purchased Sigma-Aldrich
T1 sequence (P04746 16-511): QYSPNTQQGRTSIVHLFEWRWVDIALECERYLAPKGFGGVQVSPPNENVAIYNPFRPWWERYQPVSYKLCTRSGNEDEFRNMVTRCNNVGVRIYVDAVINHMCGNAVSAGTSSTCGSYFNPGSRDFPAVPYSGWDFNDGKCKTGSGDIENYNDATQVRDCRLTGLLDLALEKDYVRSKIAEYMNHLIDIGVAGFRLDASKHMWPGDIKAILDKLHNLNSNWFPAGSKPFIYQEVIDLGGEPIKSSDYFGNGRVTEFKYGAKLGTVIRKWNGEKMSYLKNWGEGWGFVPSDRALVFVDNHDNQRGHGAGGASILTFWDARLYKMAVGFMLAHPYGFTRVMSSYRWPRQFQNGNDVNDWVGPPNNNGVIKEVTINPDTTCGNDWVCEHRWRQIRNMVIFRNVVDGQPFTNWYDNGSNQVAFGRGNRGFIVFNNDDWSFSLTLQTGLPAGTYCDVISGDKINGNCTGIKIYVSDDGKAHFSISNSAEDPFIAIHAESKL
Assay: In vitro inhibition of pancreatic α-amylase (starch, DNSA)
Type: biochemical
Details: pure commercial standards; triplicate; Figure 7 A-C
Description: Pancreatic α-amylase inhibition activity was assessed according to the method described by Daoudiet al. [25]. […] The solutions were prepared by dissolving the enzymes and samples in a phosphate buffer solution (0.1 M, pH 6.9). The mixtures were incubated for 10 min at 37 °C. Next, 200 μL of 1% starch also dissolved in a phosphate buffer was added to the reaction mixture, and all test tubes were incubated for another 20 min at 37 °C. To stop the reaction, 600 μL of DNSA (1 g of 3,5-dinitrosalicylic acid dissolved in 20 mL of NaOH(2N), combined with 30 g of KNaC4H4O6, and filled up to 100 mL with distilled water) was added. Afterward, the mixture was posed in a water bath at 100 °C for 8 min, then it was put in an ice-cold-water bath for a few minutes. About 1 mL of distilled water was added to the sample tubes before their absorbance measurement at 540 nm.
The percentage of inhibition was computed using the following formula:(2) Inhibitory activity (%)=Abs control 540 nm− Abs sample 540 nm/Abs control 540 nm×100
Increasing concentrations were utilized to calculate the IC50 value. The enzymatic assays were carried out as indicated above.

IC50 [µM] | Structure (SMILES)
30.8 ± 2.11 | Oc1cc(O)c2c(c1)O[C@@H](c1ccc(O)c(O)c1)[C@H](O)C2 [Catechin, (−)-catechin]
29.4 ± 4.57 | O=c1oc2c(O)c(O)cc3c(=O)oc4c(O)c(O)cc1c4c23 [Ellagic acid]
